Data: US5352667A, “Non-peptidic surrogates of the Arg-Gly-Asp sequence and pharmaceutical compositions comprising them” (priority 1991, dated 1994)

Key:
[1] = system: B16-melanoma cells adhesion to VN; assay: Inhibition of B16-melanoma cell adhesion to VN; type: cell-based, murine; conditions: for % inhibition of adhesion of B16-melanoma cells to VN / % Adhesion of B16-melanoma cells to VN: surrogates 0.2 mM; for % inhibition of adhesion of B16-melanoma cells to VN: * P<0.05; for % Adhesion of B16-melanoma cells to VN: none 68 ± 5
Description: (§1) To examine the adhesive properties of tumor cells, 1 μg/50μ/well of FN or 0.3μg/well of VN were added to 96-flat bottom microtiter wells for 12 h. Unbound proteins were then washed away and remaining binding sites were blocked with 0.1% BSA added to the wells for 2 h and washed. Murine B16-melanoma F-1 cells were metabolically labeled with ^35 S-methionine (New England Nuclear) for 2 h, chased for 18 h and extensively washed. The cell suspension was resuspened in RPMI supplemented with 1% BSA containing 1 mM CaCl2 and MgCl2. Tumor cell adhesion to control wells or to wells coated with BSA was always 2-5%. The tested non-peptidic surrogates, 0.2 mM in PBS, were used to pretreat the tumor cells for 15 min before seeding the cells *, P<0.05.
(§2) In a first series of experiments, the potential inhibitory action of the RGD surrogate SF-6,5 on adhesion of B16 melanoma cells to FN or VN was compared to that of the RGE surrogate SF-6,6 and to that of RGD, GRGDSPK and GRGESP peptides.

[2] = system: B16-melanoma cells adhesion to FN; assay: Inhibition of B16-melanoma cell adhesion to FN; type: cell-based, murine; conditions: for B-16 melanoma cell adhesion to FN, in words: Table 2A; for % inhibition of adhesion of B16-melanoma cells to FN / % Adhesion of B16-melanoma cells to FN: surrogates 0.2 mM; for % inhibition of adhesion of B16-melanoma cells to FN: * P<0.05; for % Adhesion of B16-melanoma cells to FN: none 75 ± 5
Description: as §1, §2
In a further set of experiments, the inhibitory activity of the RGD surrogates SF-6,5 and NS-11 on the adhesion of B16 murine melanoma cells to FN was compared to that of the GRGDSP peptide.

[3] = target: GPIIb-IIIa (Homo sapiens, UniProt P05106+P08514); assay: Inhibition of the binding capacity of anti-GPIIb-IIIa mAb (PAC-1) to platelets; conditions: FIG. 6, 0-500μM, ADP-activated platelets
Description: To investigate whether the RGD surrogates actually bind to the GPIIb-IIIa integrin, their ability to compete with a monoclonal antibody (mAb) specific to GPIIb-IIIa was investigated. This mAb, designated PAC-1, specific for the activated receptor, binds GPIIb-IIIa in an RGD-dependent manner (Taub, R. et al. (1989) J.Biol.Chem. 264: 259).
ADP-activated platelets were incubated with FITC-conjugated PAC-1 mAb in the presence of various peptidic and non-peptidic compounds, as follows: the platelet rich plasma were gel-filtrated into modified Tryode's solution (137.5 mM Nacl, 4 mN Hepes, 2.6 mM KCl,1 mM MgCl2, 3.3 mM NaH2 PO4, 5.6 mM glucose at pH 7.4) containing 350μg/ml BSA (which was used as the incubation buffer in further steps; Tryode's/BSA). The final count in the cell assays was 2×10^6 per ml. The cells were then activated with 10μM ADP and epinephrine. To examine RGD peptides and related analogues as competitors for the binding capacity of the PAC-1 mAb to platelets, the cells were incubated in 50μl Tryode's/BSA supplemented with 1 mM CaCl2 for 30 min in 25° C., in the presence of 0-500μM peptides or peptide-analogues with 10μg/ml FITC labeled PAC-1. The fluorescence profile of the cells was determined using FACScan (Beckton Dickenson) at 488 nm. In FIG. 6: GRGDSPK (empty circles), GRGESP (filled triangles), compound SF-6,5 (empty triangles), compound SF-6,6 (filled circles) (the data shown here represent results obtained in one of three experiments which were essentially identical).

[4] = system: CD4^+ T cell adhesion to FN; assay: Inhibition of activated CD4+ T cell adhesion to FN; type: cell-based, human
Description: To examine the adhesive properties of the T cells, 1 μg/50 μl/well of either fibronectin (FN) (Sigma), the 120 kD cell attachment fragment of FN (Telios Pharm. Inc. San Diego, CA), or laminin (LN) (Sigma), were added to 96-flat bottom microtiter-wells for 12 h. Unbound proteins were then washed away and remaining binding sites were blocked with 0.1% bovine serum albumin (BSA) added to the wells for 2 h and washed. CD4+T cells were purified from peripheral blood mononuclear leukocytes obtained from healthy human donors. The mononuclear cells were isolated using a Ficoll gradient, washed and incubated in RPMI supplemented with 10% fetal calf serum (FCS) and antibiotics in petri dishes at 37° C. humidified CO2 incubator. After 2 h, the non-adherent cells were isolated and applied on nylon-wool columns (1.5 h). CD4^+ T cells were then negatively selected by exposure of the cells to a cocktail of anti-CD8, CD19, and CD14 monoclonal antibodies (mAb) conjugated to magnetic-beads (Advanced Magnetics, MA). Unbound cells were recovered and their phenotype was examined. Purity of the CD4^+ T cells was always greater than 92% as determined by FACScan.
The purified CD4^+ T cells were radioactively labeled with ^51 [Cr](New England Nuclear) in RPMI +20% FCS for 2 h and washed. The cells were counted and seeded (0.2×10^5 cells) on the precoated microtiter wells in the presence or the absence of the various inhibitors. Coating was made either with FN, the 120 kD cell-attachment fragment of FN or with control adhesive protein laminin (LN). The inhibitors were various surrogates according to the invention, other test molecules or mAb. After 30 min incubation (in […] CO2 -- humidified incubator) the T cells were activated by 10 ng/ml phorbol myristate acetate (PMA) and the percent of T cells attached to the protein substrates was measured. Unbound cells were washed away after 20-30 min, the bound cells were lysed and their radioactivity was measured using radioactive counter. The amount of the radioactivity of the cell lysates represent the matrix-adherent cells and percent binding was calculated in comparison to the total radioactivity added to the wells. Activated T cell adhesion to control wells or to wells coated with BSA was always 2-5%; the level of adhesion of the non-activated T cells was always below 5%. Where indicated, 1/200 diluted mAb anti-CD29 (anti-β1 mAb Serotec, GB), or 1/400 diluted anti-VLA5 (the β1α5 FN-integrin receptor) mAb (Telios Pharm. Inc. San Diego), or 0.2 mM of RGD, GRGDSPK or GRGESP peptides (Sigma) were used. […] The results shown in Tables 1A, 1B and 1C represent data obtained from several experiments that produced essentially similar results.
In a second series of experiments, FN was used in the adhesion assay carried out with the RGD surrogates NS-8, NS-11 and NS-15 in comparison to RGDS peptide.
In a third series of experiments, FN was used in the adhesion assay with the surrogates SF-6,5 and NS-11 and compared to the peptide GRGDSP.

[5] = system: B16-melanoma cells adhesion to FN; assay: Inhibition of B16-melanoma cell adhesion to FN; type: cell-based, murine
[6] = system: tumor cell-induced metastases; assay: Inhibition of tumor cell-induced metastases in C57BL/6 mice; type: in vivo; conditions: i.v. daily, 25μg of SF-6,5 per mouse, after induction of metastasis

Question: Which results are given for GRGDSPK [RGD peptide (Sigma)]?
Answer: % inhibition of adhesion of B16-melanoma cells to VN [1]: 86%; % Adhesion of B16-melanoma cells to VN [1]: 10 ± 2%; B-16 melanoma cell adhesion to FN, in words [2]: found to be inhibited by the GRGDSPK peptide; % inhibition of adhesion of B16-melanoma cells to FN [2]: 80%; % Adhesion of B16-melanoma cells to FN [2]: 15 ± 4%; Inhibition of PAC-1 binding to platelets, in words [3]: inhibited PAC-1 staining of the cells in a dose-dependent manner

Question: For N=C(N)NCCCCCC(=O)NCCCCC(=O)O [SF-6,5, 6-aza-7-oxo-12-quanidino-dodecanoic acid], which “B-16 melanoma cell adhesion to VN, in words” value ([1]; Table 2A) is on record?
Answer: Its value is “inhibited tumor cell adhesion to both FN and VN”.

Question: What about the “% inhibition of adhesion of B16-melanoma cells to VN” value [1] of the same molecule?
Answer: Its value is 42%.

Question: And the “% Adhesion of B16-melanoma cells to VN” value [1]?
Answer: The value was 40 ± 5%.

Question: What about the “% Adhesion of activated CD4^+ T cell to FN: (% inhibition)” value ([4]; Conc. 25 μg. ml) of the same molecule?
Answer: The value was 10%.

Question: What about the “% Adhesion of activated CD4^+ T cell to FN: (% inhibition)” value ([4]; Conc. 50 μg. ml) of the same molecule?
Answer: The value was 25%.

Question: And the “% Adhesion of activated CD4^+ T cell to FN: (% inhibition)” value ([4]; Conc. 100 μg. ml)?
Answer: Its value is 38%.

Question: And the “% Adhesion of activated CD4^+ T cell to FN: (% inhibition)” value ([4]; Conc. 200 μg. ml)?
Answer: Its value is 55%.

Question: What about the “% Adhesion of activated tumor cells to FN: (% inhibition)” value ([5]; Conc. 25 μg. ml) of the same molecule?
Answer: Its value is 10%.

Question: What about the “% Adhesion of activated tumor cells to FN: (% inhibition)” value ([5]; Conc. 50 μg. ml) of the same molecule?
Answer: The value was 20%.

Question: And the “% Adhesion of activated tumor cells to FN: (% inhibition)” value ([5]; Conc. 100 μg. ml)?
Answer: Its value is 30%.

Question: What about the “% Adhesion of activated tumor cells to FN: (% inhibition)” value ([5]; Conc. 200 μg. ml) of the same molecule?
Answer: Its value is 45%.

Question: And the “B-16 melanoma cell adhesion to FN, in words” value [2]?
Answer: The value was “inhibited tumor cell adhesion to both FN and VN”.

Question: And the “% inhibition of adhesion of B16-melanoma cells to FN” value [2]?
Answer: The value was 55%.

Question: What about the “% Adhesion of B16-melanoma cells to FN” value [2] of the same molecule?
Answer: Its value is 34 ± 4%.

Question: And the “Inhibition of tumor cell-induced metastases” value [6]?
Answer: Its value is “inhibition of tumor cell-induced metastases”.

Question: What about the “Inhibition of PAC-1 binding to platelets, in words” value [3] of the same molecule?
Answer: Its value is “inhibited PAC-1 staining of the cells in a dose-dependent manner”.

Question: Which “% inhibition of adhesion of B16-melanoma cells to VN” value [1] does the source give for N=C(N)NCCCCCC(=O)NCCCCCC(=O)O [SF-6,6] here?
Answer: The value was 0%.

Question: And the “% Adhesion of B16-melanoma cells to VN” value [1]?
Answer: Its value is 70 ± 7%.

Question: And the “% inhibition of adhesion of B16-melanoma cells to FN” value [2]?
Answer: The value was 0%.

Question: What about the “% Adhesion of B16-melanoma cells to FN” value [2] of the same molecule?
Answer: The value was 75 ± 9%.

Question: What about the “Inhibition of tumor cell-induced metastases” value [6] of the same molecule?
Answer: Its value is “failed to inhibit metastases”.

Question: And the “Inhibition of PAC-1 binding to platelets, in words” value [3]?
Answer: Its value is “failed to inhibit PAC-1 binding to the platelet integrin receptor”.
